Like-named read-outs stand apart in the source and are kept apart here.
Key:
[1] = target: AQ variant of truncated human STING protein, amino acids 155-379 (Homo sapiens (Human), UniProt Q86WV6, G230A/H232R/R293Q); assay: Human AQ STING [3H] 2′,3′-cGAMP scintillation proximity competition binding assay
Excerpt: (§1) A human STING [^3H] 2′,3′-cGAMP scintillation proximity competition binding assay was utilized to detect binding of compounds to STING protein. […] The protein encoding plasmid contained a HIS tag, followed by an Avi tag and then a SUMO tag, which were followed by the STING coding sequence within the pET-28a (+) vector. The plasmid was transfected into a BL21 (DE3)/BirA E. coli co-expression strain. Protein was purified from the bacterial lysate using a cobalt-affinity column. The purified protein was dialyzed against PBS and then 20% glycerol was added prior to storage at −80° C.
(§2) 2′,3′-cGAMP in assay buffer (50 mM Tris pH 7.5, 100 mM NaCl, 0.1% Fatty Acid Free BSA). Test compounds (2.5 μL) were added to the plate first followed by a 25 μL mixture of STING protein, streptavidin PVT SPA beads (Perkin Elmer) and 10 μL [^3H] 2′,3′-cGAMP. Plates were incubated at room temperature for 18 hrs and read on a Wallac MicroBeta TriLux (Perkin Elmer).

[2] = tested on: STING signaling, RAW-Dual reporter cells; assay: Measurement of mouse IFN-β (ELISA); format: cell-based
Excerpt: Mouse Interferon-β (IFN-β) in the supernatants of murine macrophages treated with STING activators was quantified using sandwich enzyme linked immunosorbent assay (ELISA). Briefly, IFN-β binds to plates coated with antibody and detection is accomplished using a detection antibody followed by streptavidin conjugated to horseradish peroxidase. Tetramethyl-benzidine is used as the substrate in this kit (PBL Assay Science). […] In this invention, mouse IFN-β ELISA is used to determine the potency of compound on STING pathway activation in mouse macrophages.
Murine macrophage derived cell line RAW-Dual reporter cells (Invivogen) were used to measure the IFN-β produced by STING signaling activation. Briefly, 20,000 cells in 27 μL were seeded into tissue culture treated 384-well plate that contained 3 μL of test compound. Cells were incubated at 37° C., in a 5% CO2 incubator for 5.5 hours. Supernatants from treated cells were diluted 20-fold and prior to measurement of IFN-β levels using ELISA kit (PBL Assay Science). 100 μL of diluted sample was added to ELISA plate. Plates were incubated at RT for 1 hour with shaking at 650 rpm. Post incubation, samples were aspirated from wells and the wells were washed 4 times. Diluted antibody (50 μL) was added to plates and incubated at RT for 30 minutes with shaking, followed by aspiration of antibody and 4× washes. Diluted HRP (horseradish peroxidase) solution (50 μL) was added and incubated for 10 minutes, followed by aspiration of the solution and 4× wash steps. After the final wash steps, plates were incubated with 100 μL of TMB (tetramethyl benzidine) substrate for 10 minutes, followed by addition of 100 μL of stop solution and plates were read on Envision plate reader for optical density.

[3] = tested on: STING pathway, THP1 cells; assay: Human IFN-α/β induction assay (THP1 supernatants on HEK-Blue IFN-α/β reporter cells); format: cell-based; details: THP1 cells 5 hrs, HEK-Blue reporter cells 24 hrs
Protocol: Genetically engineered human type-1 Interferons (IFN-α/β) sensor cells-HEK Blue™ IFNα/β cells (Invivogen) were employed to measure the type-1 IFNs produced by THP1 cells that are treated with activators of STING. The human embryonic (HEK) Blue™ cells are specially designed to monitor the activation of JAK/STAT pathway induced by type 1 IFNs. Briefly, THP1 cells are treated with compounds for 5 hrs. In the second step, supernatants of THP1 cells are transferred to HEK Blue™ IFNα/β reporter cells and incubated for 24 hrs. The secreted embryonic alkaline phosphatase (SEAP) activity in the supernatants of HEK blue IFNα/3 reporter cells is measured and used to determine the quantities of IFNs.
HEK-Blue IFN-α/β reporter cells (Invivogen) were used to measure the secretion of IFN-α/β into culture supernatants of THP1 cells following STING pathway activation. In the first step, THP1 cells were cultured in presence of STING activators for 5 hrs at 37° C., in a 5% CO2 tissue culture incubator, which facilitates the release of IFN-α/β into the supernatants. In the second step, cell supernatants from THP1 cells were transferred to HEK-Blue IFN-α/β reporter cells and incubated at 37° C., in a 5% CO2 incubator for 24 hrs. HEK-Blue IFN-α/β reporter cells are specifically designed to monitor the activation of JAK-STAT pathway activation by type 1 IFNs. These cells express a secreted embryonic alkaline phosphatase (SEAP) reporter gene under the control of ISG54 promoter, which is a well-known interferon stimulatory gene activated by type 1 IFNs. Upon IFN-α/β stimulation, HEK-Blue IFN-α/β reporter cells activate the JAK-STAT pathway and subsequently the expression of the reporter gene. SEAP which is secreted in the supernatant is easily detectable using alkaline phosphatase detection medium (Quanti-Blue reagent from Invivogen).
These assays were run by adding 2 μL of compound stock solution to tissue culture treated 384-well plates with electronic pipettes. Compounds were diluted in autoclaved sterile water, initially spotted on the intermediate dilution plate and then to the assay plate. […]

[4] = target: murine STING protein (amino acids 154-378) (Mus musculus (Mouse), UniProt Q3TBT3); assay: Murine STING [3H] 2′,3′-cGAMP scintillation proximity competition binding assay
murine STING protein (amino acids 154-378), sequence (Q3TBT3 154-378): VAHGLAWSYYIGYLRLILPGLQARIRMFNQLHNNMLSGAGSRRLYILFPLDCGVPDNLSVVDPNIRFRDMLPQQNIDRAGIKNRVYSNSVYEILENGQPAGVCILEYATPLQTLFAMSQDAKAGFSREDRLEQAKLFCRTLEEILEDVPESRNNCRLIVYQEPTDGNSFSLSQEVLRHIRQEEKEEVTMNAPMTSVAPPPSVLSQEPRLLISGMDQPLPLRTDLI

[5] = target: wild-type (WT) truncated human STING protein, amino acids 155-379 (Homo sapiens (Human), UniProt Q86WV6, H232R); assay: Human WT STING [3H] 2′,3′-cGAMP scintillation proximity competition binding assay
wild-type (WT) truncated human STING protein, amino acids 155-379, sequence (Q86WV6 155-379 H232R): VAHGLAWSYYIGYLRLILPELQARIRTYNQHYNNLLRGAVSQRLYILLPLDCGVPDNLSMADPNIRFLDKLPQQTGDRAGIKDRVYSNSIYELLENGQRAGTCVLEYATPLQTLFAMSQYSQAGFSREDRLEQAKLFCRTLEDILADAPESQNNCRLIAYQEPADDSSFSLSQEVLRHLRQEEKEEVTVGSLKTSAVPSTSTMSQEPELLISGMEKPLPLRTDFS
Excerpt: as §1, §2

CT-26 tumor = CT-26 tumor bearing mice, intra-tumoral treatment and re-challenge; details: 50 μg intra-tumoral Days 0, 3, 7
[6] = read-out: Human AQ Binding IC50
[7] = read-out: Human WT Binding IC50

AQ variant of truncated human STING protein, amino acids 155-379, sequence (Q86WV6 155-379 G230A/H232R/R293Q): as the sequence (Q86WV6 155-379 H232R) above, with G76A, R139Q counted along it

Structure (SMILES) | IC50 [1, 6] | IC50 ([4]; read-out: Murine Binding IC50) | IC50 [5, 7] | also measured
Nc1nc2c(ncn2[C@@H]2O[C@@H]3COP(=O)(S)OCCn4c(nc5cncnc54)COP(=O)(S)O[C@@H]2[C@@H]3F)c(=O)[nH]1 (single isomer, unassigned) [Example 1D] | < 1 µM |  |  | EC50 [2]: > 5 µM; EC50 ([3]; Homo sapiens, THP-1): < 5 µM
Nc1nc2c(ncn2[C@@H]2O[C@@H]3COP(=O)(S)OCCn4c(nc5c(N)ncnc54)COP(=O)(S)O[C@@H]2[C@@H]3F)c(=O)[nH]1 (single isomer, unassigned) [Example 7A] | 1 to 9.99 µM | < 1 µM | 10 to 100 µM | 
Nc1nc2c(ncn2[C@@H]2O[C@@H]3COP(=O)(S)OCCn4c(nc5c(N)ncnc54)COP(=O)(S)O[C@@H]2[C@@H]3F)c(=O)[nH]1 (single isomer, unassigned) [Example 7B] | 1 to 9.99 µM | < 1 µM | 10 to 100 µM | 
Nc1nc2c(ncn2[C@@H]2O[C@@H]3COP(=O)(S)OCCn4c(nc5c(N)ncnc54)COP(=O)(S)O[C@@H]2[C@@H]3F)c(=O)[nH]1 (single isomer, unassigned) [Example 7C] | < 1 µM | < 1 µM | < 1 µM | 
Nc1nc2c(ncn2[C@@H]2O[C@@H]3COP(=O)(S)OCCn4c(nc5c(N)ncnc54)COP(=O)(S)O[C@@H]2[C@@H]3F)c(=O)[nH]1 (single isomer, unassigned) [Example 7D] | < 1 µM | < 1 µM | 1 to 9.99 µM | 
Nc1nc2ncn([C@@H]3O[C@@H]4COP(=O)(S)OCCn5c(nc6cc(Cl)cnc65)COP(=O)(S)O[C@@H]3[C@@H]4F)c2c(=O)[nH]1 (single isomer, unassigned) [Example 13B] | 10 to 100 µM | 1 to 9.99 µM | 10 to 100 µM | 
CO[C@H]1[C@H]2OP(=O)(S)OCc3nc4cncnc4n3CCOP(=O)(S)OC[C@H]1O[C@H]2n1cnc2c(=O)[nH]c(N)nc21 (single isomer, unassigned) [Example 27B] | 1 to 9.99 µM | < 1 µM | 10 to 100 µM | 
CO[C@H]1[C@H]2OP(=O)(S)OCc3nc4cncnc4n3CCOP(=O)(S)OC[C@H]1O[C@H]2n1cnc2c(=O)[nH]c(N)nc21 (single isomer, unassigned) [Example 27C] | < 1 µM | < 1 µM | < 1 µM | 
CO[C@H]1[C@H]2OP(=O)(S)OCc3nc4cncnc4n3CCOP(=O)(S)OC[C@H]1O[C@H]2n1cnc2c(=O)[nH]c(N)nc21 (single isomer, unassigned) [Example 27D] | < 1 µM | < 1 µM | 1 to 9.99 µM | 
Nc1nc2c(ncn2[C@@H]2O[C@@H]3COP(=O)(O)O[C@@H]4[C@H](O)[C@@H](COP(=O)(O)O[C@@H]2[C@@H]3O)O[C@H]4n2cnc3c(N)ncnc32)c(=O)[nH]1 [2′,2′-cGAMP, reference compound] |  |  |  | IC50 ([1]; reference compound, unit printed as 'M' (sic), read-out: IC50 using the AQ STING protein): 0.098 µM; IC50 ([4]; reference compound, read-out: IC50, murine STING binding): 0.055 µM; IC50 ([5]; reference compound, read-out: IC50 using the WT STING protein): 0.562 µM
Nc1ncnc2c1ncn2[C@@H]1O[C@@H]2COP(=O)([S-])O[C@@H]3[C@H](O)[C@@H](COP([O-])(=S)O[C@H]2[C@H]1O)O[C@H]3n1cnc2c(N)ncnc21.[Na+].[Na+] (stereo partly drawn) [ADU-S100, reference compound] |  |  |  | EC50 [2]: > 5 µM; EC50 [3]: > 10 µM; Number of surviving mice (CT-26 tumor; Day 0): 10/10; Number of surviving mice (CT-26 tumor; Day 3): 10/10; Number of surviving mice (CT-26 tumor; Day 7): 10/10; Number of surviving mice (CT-26 tumor; Day 10): 10/10; Number of surviving mice (CT-26 tumor; Day 14): 10/10; Number of surviving mice (CT-26 tumor; Day 17): 10/10; Number of surviving mice (CT-26 tumor; Day 20): 10/10; Number of surviving mice (CT-26 tumor; Day 23): 7/10; Number of surviving mice (CT-26 tumor; Day 35): 1/10; animals with complete regression of the tumors (CT-26 tumor; by Day 30): None
Nc1nc2c(ncn2[C@@H]2O[C@@H]3COP(=O)(O)OCCn4c(nc5cncnc54)COP(=O)(O)O[C@@H]2[C@@H]3F)c(=O)[nH]1 [Example 4, (1S,21R,23R,24R)-23-(2-Amino-6-oxo-6,9-dihydro-1H-purin-9-yl)-24-fluoro-3,18-dihydroxy-2,4,17,19,22-pentaoxa-7,10,12,14-tetraaza-3lambda5,18lambda5-diphosphatetracyclo[19.2.1.06,14.08,13]tetracosa-6,8(13),9,11-tetraene-3,18-dione] | 1 to 9.99 µM | < 1 µM | 10 to 100 µM | 
Nc1ncnc2c1ncn2[C@@H]1O[C@@H]2COP(=O)(S)OCCn3c(nc4cncnc43)COP(=O)(S)O[C@@H]1[C@@H]2O (stereo partly drawn) [Example 8, (1R,21R,23R,24R)-23-(6-Amino-9H-purin-9-yl)-24-hydroxy-3,18-disulfanyl-2,4,17,19,22-pentaoxa-7,10,12,14-tetraaza-3lambda5,18lambda5-diphosphatetracyclo[19.2.1.06,14.08,13]tetracosa-6,8(13),9,11-tetraene-3,18-dione] | 10 to 100 µM | 1 to 9.99 µM | 10 to 100 µM | 
Nc1nc2c(ncn2[C@@H]2O[C@@H]3COP(=O)(S)OCCCn4c(nc5cncnc54)COP(=O)(S)O[C@@H]2[C@@H]3O)c(=O)[nH]1 (stereo partly drawn) [Example 9, (1R,22R,24R,25R)-24-(2-Amino-6-oxo-6,9-dihydro-1H-purin-9-yl)-25-hydroxy-3,19-disulfanyl-2,4,18,20,23-pentaoxa-7,10,12,14-tetraaza-3lambda5,19lambda5-diphosphatetracyclo[20.2.1.06,14.08,13]pentacosa-6,8,10,12-tetraene-3,19-dione] | 1 to 9.99 µM | 1 to 9.99 µM | 10 to 100 µM | 
Nc1nc2c(ncn2[C@@H]2O[C@@H]3COP(=O)(O)OCCn4c(nc5cncnc54)COP(=O)(O)O[C@@H]2[C@@H]3O)c(=O)[nH]1 [Example 10, (1R,21R,23R,24R)-23-(2-Amino-6-oxo-6,9-dihydro-1H-purin-9-yl)-3,18,24-trihydroxy-2,4,17,19,22-pentaoxa-7,10,12,14-tetraaza-3lambda5,18lambda5-diphosphatetracyclo[19.2.1.06,14.08,13]tetracosa-6,8,10,12-tetraene-3,18-dione] | 1 to 9.99 µM | < 1 µM | 10 to 100 µM | 
Nc1nc2c(ncn2[C@@H]2O[C@@H]3COP(=O)(S)OCCn4c(nc5cncnc54)COP(=O)(S)O[C@@H]2C3(F)F)c(=O)[nH]1 (stereo partly drawn) [Example 36D, (1S,21R,23R)-23-(2-Amino-6-oxo-6,9-dihydro-1H-purin-9-yl)-24,24-difluoro-3,18-disulfanyl-2,4,17,19,22-pentaoxa-7,10,12,14-tetraaza-3lambda5,18lambda5-diphosphatetracyclo[19.2.1.06,14.08,13]tetracosa-6,8,10,12-tetraene-3,18-dione] | 1 to 9.99 µM | < 1 µM | 10 to 100 µM | 
COCc1ncc2nc3n(c2n1)CCOP(=O)(S)OC[C@H]1O[C@@H](n2cnc4c(=O)[nH]c(N)nc42)[C@H](OP(=O)(S)OC3)[C@@H]1F (stereo partly drawn) [Example 40C, (1S,21R,23R,24R)-23-(2-Amino-6-oxo-6,9-dihydro-H-purin-9-yl)-24-fluoro-11-(methoxymethyl)-3,18-disulfanyl-2,4,17,19,22-pentaoxa-7,10,12,14-tetraaza-3lambda5,18lambda5-diphosphatetracyclo[19.2.1.06,14.08,13]tetracosa-6,8,10,12-tetraene-3,18-dione] | 1 to 9.99 µM | < 1 µM | 10 to 100 µM | 

Source: patent publication US11161864B2, “Sting agonists” (Venenum Biodesign, LLC, priority 2018, dated 2021)
